Source: patent US10543212B2, “Substituted amines for treating cardiac diseases” (Cardurion Pharmaceuticals, LLC, priority 2017, dated 2020)
Structures can show the parent of a compound that is named as a salt.

Each compound was assayed against T1, Full-length, GST-tagged, human CaMKIIδ (Homo sapiens, UniProt Q13557) (assay: CaMKIIδ binding assay (TR-FRET with BODIPY-labeled probe ligand)). Conditions: CaMKIIδ binding assay, results of Table 2.
T1 construct: Full-Length, Glutathione-S-Transferase(GST)-Tagged, Human CaMKIIδ was purchased from Carna Biosciences; purchased Carna Biosciences 02-111
T1 sequence (Q13557 1-478 isoform Q13557-12): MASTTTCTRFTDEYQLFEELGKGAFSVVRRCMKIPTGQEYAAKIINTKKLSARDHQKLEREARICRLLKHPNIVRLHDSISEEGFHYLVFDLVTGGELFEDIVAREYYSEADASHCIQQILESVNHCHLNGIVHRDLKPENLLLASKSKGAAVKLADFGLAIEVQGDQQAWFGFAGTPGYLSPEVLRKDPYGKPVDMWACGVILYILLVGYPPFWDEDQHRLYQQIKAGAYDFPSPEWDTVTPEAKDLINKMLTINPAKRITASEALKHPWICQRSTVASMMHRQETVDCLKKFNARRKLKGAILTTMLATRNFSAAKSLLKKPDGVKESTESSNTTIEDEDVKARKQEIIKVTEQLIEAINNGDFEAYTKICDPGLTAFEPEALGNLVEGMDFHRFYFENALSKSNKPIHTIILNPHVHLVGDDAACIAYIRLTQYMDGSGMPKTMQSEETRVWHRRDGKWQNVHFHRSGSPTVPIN
Method in brief: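 TR-FRET probe-displacement binding: 0.5 nM GST-CaMKIIδ with 10 μg/mL calmodulin, 1 mM CaCl2, 0.21 nM Tb-anti-GST Ab and 300 nM BODIPY probe in HEPES pH 7.6 buffer. Eight-point 4-fold dilutions, 1 hr at room temperature. IC50 from logistic fit; 100% inhibition defined by 3 μM parent compound.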
For `COc1ccc(N2CCNCC2)cc1Nc1ncc(-c2ccc(Cl)c(O[C@@H](C)Cn3cnnn3)c2)cn1` [Example 533, (S)-5-(3-((1-(1H-tetrazol-1-yl)propan-2-yl)oxy)-4-chlorophenyl)-N-(2-methoxy-5-(piperazin-1-yl)phenyl)pyrimidin-2-amine], the IC50 was < 10 nM.

The compounds below were run against T2, Human full-length CaMKIIδ (Homo sapiens, UniProt Q13557) (assay: Human CaMKII enzyme inhibition assay (radiometric kinase assay)). Conditions: 3 μM compound; 500 nM ATP; 0.5 nM CaMKIIδ; read-out: CaMKIIδ inhibitory activity (%) at 3 μM.
T2 construct: Human full-length CaMKIIδ (Cat #02-111) was obtained from Carna Biosciences; GST; purchased Carna Biosciences 02-111
Assay type: biochemical
Procedure: In Vitro CaMKIIδ Inhibitory Activity was Evaluated by an Enzyme Assay.
Human CaMKII Enzyme Inhibition Assay
Kinase assay for CaMKIIs was performed using the radiometric assay. Human full-length CaMKIIδ (Cat #02-111) was obtained from Carna Biosciences (Kobe, Japan).
Enzyme reactions were performed in 25 mM HEPES, pH 7.5, with 5 mM magnesium chloride, 1 mM calcium chloride, 10 μg/mL Calmodulin, 2 mM DTT, 0.01% Tween20 and 500 nM ATP (0.2 μCi/well of [γ-33P] ATP) containing 0.5 nM CaMKIIδ and 0.1 μM autophosphorylation peptide (KKALRRQETVDAL)(Toray Research Center).
After incubating the enzyme, peptide, and compounds for 5 min, kinase reactions were initiated by adding ATP, followed by incubation for 60 min at room temperature in a total volume of 50 μL. The reactions were terminated by the addition of 10% trichloroacetic acid (final concentration). The [γ-33P]-phosphorylated proteins were filtered in a Harvest Plate (Merck Millipore) with a Cell Harvester (PerkinElmer) and then free [γ-33P] ATP was washed out with 3% phosphoric acid. The plates were dried, followed by the addition of 40 μl of MicroScintO (PerkinElmer). The radioactivity was counted by a TopCount scintillation counter (PerkinElmer). The signals of the reaction without enzyme were defined as 100% inhibitory activity and those of the reaction without inhibitors as 0% inhibitory activity. In vitro CaMKIIδ inhibitory activity was evaluated by % inhibitory activity of 3 μM compound concentration.
Work on `COc1nc(N2CCC(N3CCOCC3)CC2)ccc1Nc1ncc(-c2ccc(Cl)c(O[C@@H](C)Cn3cnnn3)c2)cn1` [Example 212, 5-(4-chloro-3-(((2S)-1-(1H-tetrazol-1-yl)propan-2-yl)oxy)phenyl)-N-(2-methoxy-6-(4-(morpholin-4-yl)piperidin-1-yl)pyridin-3-yl)pyrimidin-2-amine] yielded an inhibition at 3 µM of 99%. In the case of `COc1cc(C2CCN(CCO)CC2)ccc1Nc1ncc(-c2ccc(C#N)c(O[C@@H](C)Cn3cnnn3)c2)cn1` [Example 160, 4-(2-((4-(1-(2-hydroxyethyl)piperidin-4-yl)-2-methoxy-phenyl)amino)pyrimidin-5-yl)-2-(((2S)-1-(1H-tetrazol-1-yl)propan-2-yl)oxy)benzonitrile], the inhibition at 3 µM is reported as 99%. For `COc1cc(C(=O)NC2CCOCC2)ccc1Nc1ncc(-c2ccc(C#N)c(O[C@@H](C)Cn3cnnn3)c2)cn1` [Example 87, 4-((5-(4-cyano-3-(((2S)-1-(1H-tetrazol-1-yl)propan-2-yl)oxy)phenyl)pyrimidin-2-yl)amino)-3-methoxy-N-(tetrahydro-2H-pyran-4-yl)benzamide], the inhibition at 3 µM was 98%. `C[C@@H](O)Cn1cc(Nc2ncc(-c3ccc(C#N)c(O[C@@H](C)Cn4cncn4)c3)cn2)cn1` [Example 416, 4-(2-((1-((2R)-2-hydroxypropyl)-1H-pyrazol-4-yl)amino)pyrimidin-5-yl)-2-(((2S)-1-(1H-1,2,4-triazol-1-yl)propan-2-yl)oxy)benzonitrile] gave an inhibition at 3 µM of 98%. `COc1cc(N2CCN(C3COC3)CC2)c(F)cc1Nc1ncc(-c2ccc(Cl)c(O[C@@H](C)Cn3cnnn3)c2)cn1` [Example 211, 5-(4-chloro-3-(((2S)-1-(1H-tetrazol-1-yl)propan-2-yl)oxy)phenyl)-N-(5-fluoro-2-methoxy-4-(4-(oxetan-3-yl)piperazin-1-yl)phenyl)pyrimidin-2-amine] gave an inhibition at 3 µM of 98%. For `COc1cc(N2CCC(N3CCOCC3)CC2)ccc1Nc1ncc(-c2ccc(C#N)c(O[C@@H](C)Cn3cnnn3)c2)cn1` [Example 10, 4-(2-((2-methoxy-4-(4-(morpholin-4-yl)piperidin-1-yl)phenyl)amino)pyrimidin-5-yl)-2-(((2S)-1-(1H-tetrazol-1-yl)propan-2-yl)oxy)benzonitrile hydrochloride], the inhibition at 3 µM was 98%. Compound `C[C@@H](Cn1cnnn1)Oc1cc(-c2cnc(Nc3cnn(C)c3)nc2)ccc1C#N` [Example 410, 4-(2-((1-methyl-1H-pyrazol-4-yl)amino)pyrimidin-5-yl)-2-(((2S)-1-(1H-tetrazol-1-yl)propan-2-yl)oxy)benzonitrile] has an inhibition at 3 µM of 99%. `COc1cc(C2CCN(C3COC3)CC2)ccc1Nc1ncc(-c2ccc(C#N)c(O[C@@H](C)Cn3cnnn3)c2)cn1` [Example 75, 4-(2-((2-methoxy-4-(1-(oxetan-3-yl)piperidin-4-yl)phenyl)amino)pyrimidin-5-yl)-2-(((2S)-1-(1H-tetrazol-1-yl)propan-2-yl)oxy)benzonitrile] showed an inhibition at 3 µM of 98%. In the case of `COc1cc(CNC2CC2)ccc1Nc1ncc(-c2ccc(C#N)c(O[C@@H](C)Cn3cncn3)c2)cn1` [Example 33, 4-(2-((4-((cyclopropylami-no)methyl)-2-methoxy-phenyl)amino)pyrimidin-5-yl)-2-(((2S)-1-(1H-1,2,4-triazol-1-yl)propan-2-yl)oxy)benzonitrile dihydrochloride], the inhibition at 3 µM is reported as 98%. For `COc1cc(N2CCC(N3CCOCC3)CC2)ncc1Nc1ncc(-c2ccc(C#N)c(O[C@@H](C)Cn3cnnn3)c2)cn1` [Example 57, 4-(2-((4-methoxy-6-(4-(morpholin-4-yl)piperidin-1-yl)pyridin-3-yl)amino)pyrimidin-5-yl)-2-(((2S)-1-(1H-tetrazol-1-yl)propan-2-yl)oxy)benzonitrile], the inhibition at 3 µM was 99%.
